One assay deals with MRSA. Put plainly: Zones of inhibition of impregnated catheter segments, modified Kirby-Bauer method. It is filed as cell-based, Staphylococcus aureus. On the procedure:
(§1) To evaluate the antimicrobial activity of central venous catheters treated with α-lipoic acid or its combination with gentamicin, segments of 7 French triple lumen polyurethane central venous catheters were impregnated with α-lipoic acid, gentamicin, or the combination of lipoic acid and gentamicin using the same patented method described in Example 1 with 50 mg/ml of each agent (for the final solution volume). After the impregnation process and drying, zones of inhibition were performed on one-centimeter segments according to a modified Kirby-Bauer method against MSSE, MRSE, MRSA, K. pneumoniae, E. coli, P. mirabilis, Pseudomonas aeruginosa, and Candida albicans. Each segment was half embedded in the center of a Muller-Hinton agar plate that had been previously inoculated with an individual organism. Prior to placing the catheter segments in agar, each organism was grown for 18 hours in TSB to a concentration of 0.5 McFarland (10^8 cfu/ml). A cotton swab was placed in the suspension and streaked across the surface of the Muller-Hinton agar plate to cover the entire plate. All plates were placed in a 37° C. incubator for 24 hours. Zones were measured in mm after the incubation period (Table 2).
To evaluate the antimicrobial activity of central venous catheters treated with α-lipoic acid or its combination with doxycycline, segments of 7 French triple lumen polyurethane central venous catheters were impregnated with doxycycline or the combinations of α-lipoic acid and doxycycline using the same patented method described in Example 1 (U.S. Pat. No. 6,589,591) with 50 mg/ml of each agent (for the final solution volume). After the impregnation process and drying, zones of inhibition were performed on one-centimeter segments according to a modified Kirby-Bauer method against MSSE, MRSE, MRSA, K. pneumoniae, E. coli, P. aeruginosa, P. mirabilis, and C. albicans as described in Example 2. Zones of inhibition were measured in mm after the incubation period (Table 3).
(§2) To evaluate the antimicrobial activity of central venous catheters treated with lipoamide or its combination with levofloxacin, segments of 7 French triple lumen polyurethane central venous catheters were impregnated with levofloxacin or the combinations of lipoamide and levofloxacin using the same patented method described in Example 1 (U.S. Pat. No. 6,589,591) with 100 mg/ml (final solution volume) of each agent. After the impregnation process and drying, zones of inhibition were performed on one-centimeter segments according to a modified Kirby-Bauer method against MSSE, MRSE, MRSA, vancomycin-resistant Enterococcus (VRE), K. pneumoniae, E. coli, P. aeruginosa, P. mirabilis, and C. albicans as described in Example 2. Zones of inhibition were measured in mm after the incubation period (Table 4).
as §2, with “doxycycline,” for “levofloxacin,”, “doxycycline” for “levofloxacin”, “5).” for “4).”
To evaluate the antimicrobial activity of central venous catheters treated with dihydrolipoic acid, segments of 7 French triple lumen polyurethane central venous catheters were impregnated with dihydrolipoic acid using the same patented method described in Example 1 (U.S. Pat. No. 6,589,591) with 25 mg/ml (final solution volume) of the agent. […]

Assay [1] relates to vancomycin-resistant Enterococcus (VRE). Described as above. It is filed as cell-based. Here is the method: as §1
To evaluate the antimicrobial activity of central venous catheters treated with lipoamide or its combination with levofloxacin, segments of 7 French triple lumen polyurethane central venous catheters were impregnated with levofloxacin or the combinations of lipoamide and levofloxacin using the same patented method described in Example 1 (U.S. Pat. No. 6,589,591) with 100 mg/ml (final solution volume) of each agent. […] Zones of inhibition were measured in mm after the incubation period (Table 4).
To evaluate the antimicrobial activity of central venous catheters treated with lipoamide or its combination with doxycycline, segments of 7 French triple lumen polyurethane central venous catheters were impregnated with doxycycline or the combinations of lipoamide and doxycycline using the same patented method described in Example 1 (U.S. Pat. No. 6,589,591) with 100 mg/ml (final solution volume) of each agent. […] Zones of inhibition were measured in mm after the incubation period (Table 5).
To evaluate the antimicrobial activity of central venous catheters treated with dihydrolipoic acid, segments of 7 French triple lumen polyurethane central venous catheters were impregnated with dihydrolipoic acid using the same patented method described in Example 1 (U.S. Pat. No. 6,589,591) with 25 mg/ml (final solution volume) of the agent. […] Zones of inhibition were measured in mm after the incubation period (Table 6).

A further assay relates to Klebsielle pneuminiae II. Description: Bacterial colony counts extracted from impregnated central venous catheters after incubation in bacterial suspension. It counts as cell-based, Klebsiella pneumoniae. The note with it: catheter impregnated with 50 mg/ml, 10^5 cfu/ml suspension in TSB, 37° C., 24 hours. Here is the method: (§3) In this example, segments of 7 French triple lumen polyurethane central venous catheters were impregnated with α-lipoic acid using the method described elsewhere (U.S. Pat. No. 6,589,591) and were subjected to zones of inhibition. Briefly, α-lipoic acid was dissolved in 88% formic acid (at a final solution concentration of 50 mg/ml). 85% ortho-Phosphoric acid and glycerol were then added to the solution at 79:8:13 (v/v/v) (formic acid:ortho-phosphoric acid:glycerol). After mixing the solution, 300 mg/ml of potassium chloride was added to the final solution and mixed.
Catheter segments were then placed in the impregnating solution at 55° C. with agitation for 1 hour in the dark. Catheter segments were then removed from the solution and dried under a fume hood overnight in the dark. Catheter segments were rinsed with deionized water the next day and let dry for another 18 hours in the dark. […]
(§4) Aliquots of each suspension and subsequent dilutions were cultured quantitatively.

For another assay, the system named is Klebsiella pneumoniae I. Described as above. To be noted: catheter impregnated with 50 mg/ml, 10^5 cfu/ml suspension in TSB, 37° C., 24 hours. It counts as cell-based. Here is the method:
as §3
(§5) Catheter segments were then placed in the impregnating solution at 55° C. with agitation for 1 hour in the dark. Catheter segments were then removed from the solution and dried under a fume hood overnight in the dark. Catheter segments were rinsed with deionized water the next day and let dry for another 18 hours in the dark. After the impregnation process and drying, one-centimeter segments of impregnated catheters were individually placed in 1 ml of 10^5 cfu/ml suspensions of methicillin-sensitive Staphylococcus epidermidis (MSSE), methicillin-resistant Staphylococcus epidermidis (MRSE), methicillin-resistant Staphylococcus aureus (MRSA), Klebsiella pneumoniae, Escherichia coli, or Proteus mirabilis in trypticase soy broth (TSB) at 37° C. for 24 hours. One-centimeter segments of non-impregnated catheters were also incubated individually in each bacterial suspension at 37° C. for 24 hours as controls. Catheter segments were removed from each bacterial suspension after this period, shaken to remove excess broth containing free-floating bacteria from their surfaces, placed in 1 ml of normal saline, sonicated for 5 minutes, and vortexed for 30 seconds.
as §4

The next assay relates to Escherichia coli. The description is as above. It counts as cell-based. The note with it: catheter impregnated with 50 mg/ml, 10^5 cfu/ml suspension in TSB, 37° C., 24 hours. On the procedure:
as §3, §5, §4

The subject of assay [2] is methicillin-sensitive Staphylococcus epidermidis (MSSE). Described as above. It counts as cell-based. The note with it: catheter impregnated with 50 mg/ml, 10^5 cfu/ml suspension in TSB, 37° C., 24 hours. On the procedure:
as §3, §5, §4

A further assay concerns Proteus mirabilis. The assay is described as above. It is filed as cell-based. The note with it: catheter impregnated with 50 mg/ml, 10^5 cfu/ml suspension in TSB, 37° C., 24 hours. Here is the method:
as §3, §5, §4

The mark [3] stands for this setting: catheter impregnated with 25 mg/ml of the agent.

On to `O=C(O)CCCCC(S)CCS` (stereo not shown) [Dihydrolipoic acid, 6,8-dimercaptooctanoic acid], for which the Zones of inhibition in the assay on MRSA (setting [3]) was found to be 24 mm; in assay [1] (setting [3]), 14 mm.
`NC(=O)CCCCC1CCSS1` (stereo not shown) [Lipoamide, lipoamide]: the zone of inhibition at 100000 µg/mL in the assay with MRSA (Staphylococcus aureus, catheter impregnated with 100 mg/ml of each agent) is 10 mm; in assay [1] (Enterococcus, catheter impregnated with 100 mg/ml of each agent), 4 mm.
`O=C(O)CCCCC1CCSS1` (stereo not shown) [Lipoic acid, 1,2-dithiolane-3-pentanoic acid]: the “Bacterial colony counts extracted from central venous catheters” value in the assay with Klebsielle pneuminiae II is 9.0 × 10^3; with Klebsiella pneumoniae I, 1.1 × 10^6; with Escherichia coli it was 1.4 × 10^4; in assay [2], 10; in the assay with Proteus mirabilis it was 0. Further, the zone of inhibition at 50000 µg/mL in the assay with MRSA (Staphylococcus aureus, catheter impregnated with 50 mg/ml of each agent, 37° C., 24 hours) came to 13 mm.
